From patent publication US20110195402A1, “SYSTEMS AND METHODS FOR DETECTING DRUG USE” (priority 2010, published 2011)
Several values for one entry are separate records, joined by “and”; a condition that tells them apart may be missing. Equal entries are not always repeated.

T1: α-amylase (Homo sapiens, UniProt P0DUB6)
T1 sequence (P0DUB6 16-511): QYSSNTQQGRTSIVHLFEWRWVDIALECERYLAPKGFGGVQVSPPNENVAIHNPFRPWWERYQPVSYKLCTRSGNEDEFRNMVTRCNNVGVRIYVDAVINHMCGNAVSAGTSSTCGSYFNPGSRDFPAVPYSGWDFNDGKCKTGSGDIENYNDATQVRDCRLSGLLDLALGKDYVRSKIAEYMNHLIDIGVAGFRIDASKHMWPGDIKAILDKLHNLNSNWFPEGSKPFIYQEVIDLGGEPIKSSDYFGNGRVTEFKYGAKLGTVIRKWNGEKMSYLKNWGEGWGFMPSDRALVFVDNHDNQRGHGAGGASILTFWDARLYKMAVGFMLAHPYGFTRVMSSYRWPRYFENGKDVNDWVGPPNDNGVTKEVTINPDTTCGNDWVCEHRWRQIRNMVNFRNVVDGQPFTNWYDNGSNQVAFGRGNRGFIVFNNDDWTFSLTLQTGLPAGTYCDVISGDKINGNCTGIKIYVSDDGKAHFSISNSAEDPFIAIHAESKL

T2: lysozyme (Homo sapiens, UniProt P61626)
T2 sequence (P61626 19-148): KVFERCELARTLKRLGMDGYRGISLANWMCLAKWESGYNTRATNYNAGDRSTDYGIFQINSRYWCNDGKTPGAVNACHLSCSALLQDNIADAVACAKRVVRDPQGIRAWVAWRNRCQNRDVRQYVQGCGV


How the values were obtained:
peroxidase = test: Peroxidase assay in saliva (Amplex Red); assay type: biochemical; settings: test compound at 500 ppm, pooled or unpooled saliva, 30 minutes; FIGS. 26-29
Protocol: To determine the effect of various GRAS compounds as inhibitors of peroxidase activity, a standard assay using Amplex® Red (Life Technologies), which releases a fluorescent oxidation product.
The test compounds, such as GRAS materials or cocktails of same, were prepared at a concentration of 500 ppm in distilled water. For the assay, 50 μl samples of test compounds were mixed with 20-30 μl of saliva (either “pooled” or “unpooled”) prior to the addition of Amplex® Red. […] Reactions were allowed to run for 30 minutes during these assays.

α-amylase = target: T1, α-amylase; test: α-Amylase inhibition saliva screening (2-chloro-p-nitrophenol-maltotriose substrate, 405 nm); assay type: biochemical; settings: for Ave (reading, absorbance at 405 nm) / reading (absorbance at 405 nm), single replicates: test compound prepared at 5,000 ppm, 37° C., control column '100% Saliva'; for inhibition of α-Amylase: 100% saliva samples, FIG. 11; for α-Amylase Inhibitor Activity: dilute (3.5%) saliva, FIG. 10
Source text: Further details of these five compounds may also be seen in Table 4.

lysozyme = target: T2, lysozyme; test: Lysozyme inhibition saliva screening (fluorescein-labeled Micrococcus lysodeikticus); assay type: biochemical; settings: 100% saliva samples (data not shown)
Source text: Further details of these five compounds may also be seen in Table 5.

protease = settings: natural protease inhibitor; Table II; cited from earlier work

Row | Molecule | peroxidase inhibition (peroxidase) | Ave (reading, absorbance at 405 nm) (α-amylase; 0 min) | inhibition of α-Amylase (α-amylase) | Ave (reading, absorbance at 405 nm) (α-amylase; 5 min) | Ave (reading, absorbance at 405 nm) (α-amylase; 15 min) | α-Amylase Inhibitor Activity (α-amylase) | also measured
1 | Cn1c(=O)c2c(ncn2C)n(C)c1=O [CDI-33, Caffeine] | significant peroxidase inhibition capabilities |  |  |  |  |  | 
2 | Aluminum sulfate hydrate [CDI-34] |  | 0.40 | inhibit α-Amylase | 0.50 | 0.56 | α-Amylase Inhibitor Activity | reading (absorbance at 405 nm), single replicates (α-amylase; 0 min, sulfate hydrate): 0.40 (2×) and 0.36 and 0.45; reading (absorbance at 405 nm), single replicates (α-amylase; 5 min, sulfate hydrate): 0.49 and 0.50 (2×) and 0.52; reading (absorbance at 405 nm), single replicates (α-amylase; 15 min, sulfate hydrate): 0.53 and 0.61 and 0.54 and 0.56
3 | Aluminum potassium sulfate dodecahydrate [CDI-42] | significant peroxidase inhibition capabilities | 0.92 | inhibit α-Amylase | 1.85 | 2.29 | α-Amylase Inhibitor Activity | reading (absorbance at 405 nm), single replicates (α-amylase; 0 min): 0.80 and 1.13 and 0.90 and 0.84; reading (absorbance at 405 nm), single replicates (α-amylase; 5 min): 1.65 and 2.15 and 1.80 and 1.81; reading (absorbance at 405 nm), single replicates (α-amylase; 15 min): 2.37 and 2.38 and 2.25 and 2.17
4 | COc1ccc(O)c(C(C)(C)C)c1 [CDI-39, 3-tert--butyl-hydroxyanisole] | significant peroxidase inhibition capabilities |  |  |  |  |  | 
5 | O=C(O)c1ccccc1 [CDI-40, Benzoic acid] |  |  |  |  |  |  | inhibition of Lysozyme (lysozyme): inhibit Lysozyme
6 | Soybeans: primary soybean protease inhibitor, 20.7-22.3 kDa (protein, UniProt P01070 25-205, looked up) Trypsin inhibitor A: DFVLDNEGNPLENGGTYYILSDITAFGGIRAAPTGNERCPLTVVQSRNELDKGIGTIISSPYRIRFIAEGHPLSLKFDSFAVIMLCVGIPTEWSVVEDLPEGPAVKIGENKDAMDGWFRLERVSDDEFNNYKLVFCPQQAEDDKCGDIGISIDHDDGTRRLVVSKNKPLVVQFQKLDKESL |  |  |  |  |  |  | Inhibitory power (protease): 1.2 times times weight
